{"source": "patent US9493477B2", "about": "“Compositions comprising enzyme-cleavable ketone-modified opioid prodrugs and optional inhibitors thereof” (priority 2009, dated 2016)", "key": {"[1]": {"experiment": "Pharmacokinetics following PO administration to rats (drug released into plasma from prodrug, or oxycodone)", "assay_type": "in vivo, rat", "conditions": "for oxycodone plasma concentrations compared to administration of oxycodone: PO prodrug versus PO oxycodone 10 mg/kg (Example 15)", "experimental": "At specified time points, blood samples were drawn, harvested for plasma via centrifugation at 5,400 rpm at 4° C. for 5 min, and 100 microliters (μl) plasma transferred from each sample into a fresh tube containing 1 μl of formic acid. The tubes were vortexed for 5-10 seconds, immediately placed in dry ice and then stored until analysis by high performance liquid chromatography/mass spectrometry (HPLC/MS).\nAt specified time points, blood samples were drawn, harvested for plasma via centrifugation at 5,400 rpm at 4° C. for 5 min, and 100 microliters (μl) plasma transferred from each sample into a fresh tube containing 2 μl of 50% formic acid. The tubes were vortexed for 5-10 seconds, immediately placed in dry ice and then stored in −80° C. freezer until analysis by HPLC/MS.\nAt specified time points, blood samples were drawn, harvested for plasma via centrifugation at 5,400 rpm at 4° C. for 5 min, and 100 μl plasma transferred from each sample into a fresh tube containing 2 μl of 50% formic acid. The tubes were vortexed for 5-10 seconds, immediately placed in dry ice and then stored in −80° C. freezer until analysis by HPLC/MS."}, "[2]": {"molecular_target": "T1, trypsin from bovine pancreas (Bos taurus, UniProt P00760)", "T1 construct": "purchased Sigma-Aldrich T8003; host or cells: bovine pancreas", "T1 sequence (P00760 24-246)": "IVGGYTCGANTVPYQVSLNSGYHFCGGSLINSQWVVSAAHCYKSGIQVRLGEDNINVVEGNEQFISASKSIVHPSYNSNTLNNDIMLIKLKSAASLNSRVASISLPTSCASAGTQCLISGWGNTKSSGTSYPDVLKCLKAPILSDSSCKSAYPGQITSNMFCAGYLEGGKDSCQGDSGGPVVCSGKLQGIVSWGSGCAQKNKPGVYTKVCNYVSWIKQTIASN", "experiment": "In vitro trypsin-mediated release of drug from prodrug, without or with trypsin inhibitor Compound 109", "assay_type": "biochemical", "experimental": "The reactions were conducted at 37° C. for 24 hr. Samples were collected at specified time points, transferred into 0.5% formic acid in acetonitrile to stop trypsin activity and stored at less than −70° C. until analysis by LC-MS/MS.\nOther reaction and sample treatment conditions were as described above."}, "[3]": {"experiment": "In vivo tolerability of Compound KC-3 IV in rats", "parameters": "species or system rat", "conditions": "IV KC-3 71 mg/kg (97 μmol/kg), 4 rats dosed, observed up to 24 hours", "method": "Male naïve Sprague-Dawley rats, 4 per dose, were used in the study. Rats were weighed, and then placed under a heat lamp for 15-20 minutes to dilate the lateral tail veins. […] Before dosing, rats were placed in Broome restrainers and the drug was introduced into one of the tail veins using a syringe and needle. […] Blood samples were collected 5 minutes post-dose via the saphenous vein. The rats were observed up to 24 hours."}, "[4]": {"experiment": "Pharmacokinetics following IV administration of prodrug to rats", "assay_type": "in vivo, rat"}, "human μ-opioid receptor [5]": {"molecular_target": "T2, human μ-opioid receptor (Homo sapiens, UniProt P35372)", "T2 sequence (P35372 whole entry)": "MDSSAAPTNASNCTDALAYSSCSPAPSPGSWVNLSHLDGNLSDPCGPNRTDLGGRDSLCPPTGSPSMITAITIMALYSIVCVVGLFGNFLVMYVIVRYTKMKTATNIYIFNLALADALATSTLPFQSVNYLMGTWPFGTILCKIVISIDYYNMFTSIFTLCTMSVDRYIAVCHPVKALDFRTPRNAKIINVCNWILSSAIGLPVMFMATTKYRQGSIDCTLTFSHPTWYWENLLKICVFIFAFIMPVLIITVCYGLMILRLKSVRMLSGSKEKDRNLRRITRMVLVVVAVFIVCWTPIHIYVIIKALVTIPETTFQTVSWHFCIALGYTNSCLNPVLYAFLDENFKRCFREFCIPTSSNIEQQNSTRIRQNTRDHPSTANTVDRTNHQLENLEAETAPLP", "experiment": "In vitro human μ-opioid receptor binding assay ([3H]DAMGO, recombinant HEK-293 cells)", "conditions": "from Table 8"}, "[6]": {"experiment": "In vitro stability of prodrug to household chemicals and enzyme preparations", "assay_type": "physicochemical", "conditions": "vodka, baking soda, WINDEX, vinegar (RT or 80° C.) and GNC Super Digestive, tenderizer, subtilisn (RT), 1 or 24 hr", "method": "(§1) Samples were incubated as described and aliquots removed at 1 hr and 24 hr and stabilized by adding each to a solution of 50% or 100% of 85% phosphoric acid solution to achieve a final pH of less than or equal to pH 4. The stabilized aliquots were then diluted 4- to 6-fold with water, vortex-mixed and applied to HPLC.\nas §1, with “described. Aliquots were” for “described and aliquots”"}, "human μ-opioid receptor [7]": {"molecular_target": "T2, human μ-opioid receptor", "assay_type": "cell-based", "parameters": "expressed in transfected cells; host or cells: CHO", "conditions": "Experiment 3; EC50 ratio, oxycodone or hydrocodone to its prodrug", "experimental": "The control reaction included 1 μM DAMGO. The reaction mixtures were incubated at 37° C. for 10 min, and the reaction product was cyclic AMP (cAMP). The samples were submitted to homogeneous time resolved fluorescence (HTRF®). EC50 values (concentration producing a half-maximal specific response) were determined by non-linear regression fit using the Hillplot software."}, "[8]": {"conditions": "241 BAEE U trypsin/mL, no inhibitor"}, "[9]": {"conditions": "rats, IV Compound KC-2 10 mg/kg or equimolar oxycodone, 15 minutes"}, "[10]": {"conditions": "4815 BAEE U trypsin/mL, no inhibitor"}}, "note": "Like-named read-outs stand apart in the source and are kept apart here.", "data": [{"smiles": "COc1ccc2c3c1O[C@H]1C(OC(=O)N(C)CCNC(=O)[C@H](CCCNC(=N)N)NC(=O)CC(=O)O)=CC[C@@]4(O)[C@@H](C2)N(C)CC[C@]314", "note": "[Compound KC-3, N—{(S)-4-guanidino-1-[2-(methyl-[(5R,9R,13S,14S)-4,5a-epoxy-6,7-didehydro-14-hydroxy-3-methoxy-17-methylmorphinan-6-oxy]carbonyl-amino)-ethylcarbamoyl]-butyl}-malonamic acid]", "values": [{"measurement": "relative plasma/CSF partitioning coefficient to oxycodone (fold less CSF penetrant than oxycodone)", "setting": "Table 15, 1,737/4.8", "result": "about 364 fold"}, {"measurement": "plasma concentrations of oxycodone versus Compound KC-3 dose", "setting": "[1]; PO 1.4 to 46 mg/kg, Table 11, FIG. 11", "result": "increase proportionally"}, {"measurement": "Rate of oxycodone formation", "setting": "[2]; [8]", "result": "0.0684 ± 0.0009", "unit": "umol/h/ BAEE U"}, {"measurement": "Clinical observations", "setting": "[3]", "result": "2 normal and 2 with ataxia which"}]}, {"smiles": "COc1ccc2c3c1O[C@H]1C(OC(=O)N(CCCCCC(=O)O)CCNC(=O)[C@H](CCCNC(=N)N)NC(C)=O)=CC[C@@]4(O)[C@@H](C2)N(C)CC[C@]314", "note": "[Compound KC-5, 6-{[2-(2-Acetylamino-5-guanidino-pentanoylamino)-ethyl]-[(5R,9R,13S,14S)-4,5a-epoxy-6,7-didehydro-14-hydroxy-3-methoxy-17-methylmorphinan-6-oxy]-1-enyloxycarbonyl-amino}-hexanoic acid]", "values": [{"measurement": "relative plasma/CSF partitioning coefficient to oxycodone (fold less CSF penetrant than oxycodone)", "setting": "Table 22, 1,508/4.8", "result": "about 316 fold"}, {"measurement": "oxycodone plasma concentrations compared to administration of oxycodone", "setting": "[1]", "result": "suppressed Cmax and AUC and delayed Tmax"}, {"measurement": "Rate of oxycodone formation", "setting": "[2]; [8]", "result": "0.135 ± 0.005", "unit": "umol/h/ BAEE U"}]}, {"smiles": "COc1ccc2c3c1O[C@H]1C(OC(=O)N(C)CCNC(=O)[C@H](CCCNC(=N)N)NC(C)=O)=CC[C@@]4(O)C(C2)N(C)CC[C@]314", "note": "[Compound KC-2, Oxycodone 6-(N-methyl-N-(2-N′-acetylarginylamino)) ethylcarbamate]", "values": [{"measurement": "relative plasma/CSF partitioning coefficient to oxycodone (fold less CSF penetrant than oxycodone)", "setting": "Table 10, 439/3.8", "result": "about 116 fold"}, {"measurement": "Compound conc. in Plasma", "setting": "male, Sprague Dawley, rat, in vivo", "result": "27,200 ng/mL"}, {"measurement": "Compound conc. in CSF", "setting": "[9]", "result": 61.9, "unit": "ng/mL"}, {"measurement": "Plasma/CSF partitioning coefficient", "setting": "[9]", "result": 439}, {"measurement": "plasma concentrations of oxycodone versus Compound KC-2 dose", "setting": "[1]; PO 1.3 to 50 mg/kg, Table 6, FIG. 9", "result": "increase proportionally"}, {"measurement": "oxycodone plasma concentrations compared to administration of oxycodone", "setting": "[1]", "result": "suppressed Cmax and delayed Tmax"}, {"measurement": "Rate of oxycodone formation", "setting": "[2]; no trypsin inhibitor, 0.761 mM prodrug, 0.0228 mg/mL trypsin, 37° C.", "result": "37.4 ± 0.9", "unit": "umols/h/umol trypsin"}, {"measurement": "Cmax of Compound KC-2 in plasma", "setting": "[4]; IV Compound KC-2 2 mg/kg, average ± sd, 4 rats", "result": "2680 ± 755", "unit": "ng/mL"}, {"measurement": "affinity for the μ-opioid receptor, fold less than that of oxycodone", "setting": "human μ-opioid receptor [5]", "result": "about 2 fold"}, {"measurement": "conversion to oxycodone", "setting": "[6]", "result": "less than 10%"}]}, {"smiles": "COc1ccc2c3c1OC1C(OC(=O)N(C)CCNC(=O)C(CCCNC(=N)N)NC(=O)CC(=O)O)=CCC4C(C2)N(C)CCC314", "note": "[Compound KC-4, N—((S)-1-{2-[(Dihydrocodein-6-enyloxycarbonyl)-methylamino]-ethylcarbamoyl-4-guanidino}-butyl)-malonamic acid]", "values": [{"measurement": "Drug/prodrug relative potency", "setting": "human μ-opioid receptor [7]", "result": 15}, {"measurement": "Rate of hydrocodone formation", "setting": "[2]; [8]", "result": "0.0911 ± 0.015", "unit": "umol/h/ BAEE U"}, {"measurement": "Rate of hydrocodone formation", "setting": "[2]; [10]", "result": "0.0137 ± 0.0014", "unit": "umol/h/ BAEE U"}, {"measurement": "KC-4 Cmax ± sd", "setting": "[4]; IV KC-4 2 mg/kg ([…])", "result": "3960 ± 570", "unit": "ng/mL"}]}, {"smiles": "COc1ccc2c3c1O[C@H]1C(OC(=O)N(C)C[C@H](NC(=O)[C@H](CCCNC(=N)N)NC(C)=O)C(=O)N(C)CC(=O)O)=CC[C@@]4(O)[C@@H](C2)N(C)CC[C@]314", "note": "[Compound KC-6]", "values": [{"measurement": "relative plasma/CSF partitioning coefficient to oxycodone (fold less CSF penetrant than oxycodone)", "setting": "Table 25, 815/4.8", "result": "about 171 fold"}, {"measurement": "oxycodone plasma concentrations compared to administration of oxycodone", "setting": "[1]", "result": "suppressed Cmax and AUC and delayed Tmax"}, {"measurement": "Rate of oxycodone formation", "setting": "[2]; [8]", "result": "0.0118 ± 0.0042", "unit": "umol/h/ BAEE U"}, {"measurement": "Rate of oxycodone formation", "setting": "[2]; [10]", "result": "0.00571 ± 0.0002", "unit": "umol/h/ BAEE U"}]}]}
